Source: patent US5656613A, “Treatment of hyperandrogenic conditions” (Merck & Co., Inc., priority 1995, dated 1997)
Like-named read-outs stand apart in the source and are kept apart here. Values belong to the compound of their own block, whether it stands above or below them.

Experiments:
[1] = molecular target: T1, human type 2 5α-reductase (Homo sapiens, UniProt P31213); assay: Structural requirements / inhibition constants and IC50 on type 2 enzyme (Examples 9 and 11); format: biochemical
T1 construct: host or cells: native human prostate tissue or recombinant from a baculovirus expression system; considered interchangeable
T1 sequence (P31213 1-254): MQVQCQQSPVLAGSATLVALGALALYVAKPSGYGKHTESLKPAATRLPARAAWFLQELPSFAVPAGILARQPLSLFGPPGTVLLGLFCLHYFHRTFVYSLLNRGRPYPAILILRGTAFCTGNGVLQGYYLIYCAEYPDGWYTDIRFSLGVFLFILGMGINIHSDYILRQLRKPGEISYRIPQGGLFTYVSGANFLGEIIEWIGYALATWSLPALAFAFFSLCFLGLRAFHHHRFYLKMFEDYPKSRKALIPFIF
Protocol: (§1) The human isozymes were employed exclusively in this research. The native isozymes were from scalp (type 1 ) or prostate (type 2) tissues, and the recombinant forms were produced by a baculovirus expression system. Except where specified, all data refer to the prostate (type 2) isozyme, the primary target of finasteride. All of the experiments described in this application were also conducted with the recombinant type 1 isozyme, either in parallel or for confirmation.
Permutations of three structural changes to finasteride were tested for their ability to abolish time-dependent inhibition. All compounds were tested at their apparent IC50 values at pH 5.5 and 37° C.
(§2) Following the procedures of Example 9, the compounds below were each tested with both human type 1 and type 2 enzyme.

[2] = molecular target: T2, human type 1 5α-reductase (Homo sapiens, UniProt P18405); assay: Inhibition of human type 1 enzyme (Example 11); format: biochemical; settings: for IC50 / kon: Table 2, human type 1
T2 construct: made in house
T2 sequence (P18405 1-259): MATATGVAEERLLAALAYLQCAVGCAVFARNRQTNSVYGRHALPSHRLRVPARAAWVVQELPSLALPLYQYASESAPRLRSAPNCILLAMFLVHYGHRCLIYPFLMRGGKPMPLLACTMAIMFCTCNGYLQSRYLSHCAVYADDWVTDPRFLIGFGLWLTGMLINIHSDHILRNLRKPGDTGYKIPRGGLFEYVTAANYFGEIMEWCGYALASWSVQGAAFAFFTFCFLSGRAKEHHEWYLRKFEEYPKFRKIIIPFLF
Protocol: Permutations of three structural changes to finasteride were tested for their ability to abolish time-dependent inhibition. All compounds were tested at their apparent IC50 values at pH 5.5 and 37° C. Those displaying slow-binding inhibition are identified by kon values, which were determined as described for finasteride above. Those for which no time-dependent inhibition was found are identified by apparent Ki values.
as §2

[3] = comparison with NADP-dihydrofinasteride adduct; cited from earlier work
[4] = molecular target: T3, human 5α-reductase (prostate, type 2) (Homo sapiens, UniProt P31213); assay: Inhibition of 5α-reductase by free NADP-dihydrofinasteride adduct; format: biochemical
T3 construct: host or cells: native human prostate tissue or recombinant from a baculovirus expression system; considered interchangeable
T3 sequence (P31213 1-254): T1 sequence (P31213 1-254)
Protocol: as §1

[5] = Nonenzymatic decomposition / stability of NADP-dihydrofinasteride adduct; format: physicochemical; settings: for degraded at 0.235 µM: 0.1m mops, pH 7.2, 235 nM, 0.1M MOPS; for ability to dissociate to [^14 C]-dihydrofinasteride after oxidation: phenazine methosulfate / pyrazine methosulfate
Protocol: The integrity of the NADP-[^14 C]dihydrofinasteride adduct, defined as its ability to form [^14 C]-dihydrofinasteride, was measured by high pressure liquid chromatography on a reverse phase column (VYDAC, 4.6×250 mm, 300 Å, 5 micron, flow rate=1 mL/min) in 60% aqueous methanol. The retention time was about 14 minutes, and was consistently 1.4 min longer than that for [^3 H]finasteride, as determined by co-injection. […] The halflife for decomposition was ~1 min in 0.1M ammonium formate buffer at pH 4.00 and 100° C., and these conditions gave 88% conversion to [^14 C]-dihydrofinasteride at infinite time.
All lines of evidence point to the covalent adduct of inhibitor and cofactor. (1) The absorbance and fluorescence spectra resemble those of NAD(P)H, the NAD-pyruvate complex and analogs and the NAD-cyanide addition complex described by Kaplan, et al. (2) On heating, the compound decomposes to (^14 C)dihydrofinasteride with a rate constant of ~6×10^-4 s^-1 and halflife of 20 min in water at neutral pH and 100° C., explaining the recovery of dihydrofinasteride in the heat-denaturation experiments above. […] (4) Securing the identification, the most prominent parent ion peak in its mass spectrum had the correct charge/mass ratio of 1116 Da.
The rate constant for nonenzymatic breakdown of the covalent intermediate to NADP^+ and dihydrofinasteride was determined under the same conditions used for the enzyme kinetic constants. See Example 5. A constant kx =7.21+0.27×10^-7 s^-1 and a halflife of 11.1±0.4 days at pH 7.2 and 37° C. was calculated. The formation of [^14 C]dihydrofinasteride went to 75% completion at infinite lime, presumably due to competing side reactions like oxidation of the dihydropyridine ring.
The decay of the isolated complex to NADP+ and [^14 C]dihydrofinasteride was measured as a function of time to determine the rate constant for nonenzymatic decomposition of NADP-dihydrofinasteride. The complex (235 nM) was incubated in 0.1M MOPS, 0.1% BSA, and 1 mM EDTA at pH 7.2 and 37° C., and fractions were taken each day and stored at -75° C. These were later analyzed by reverse phase chromatography as described for the assay using a neutral isocratic system of 60% methanol, where [^14 C]dihydrofinasteride has a retention time of 14 min. The y-axis is expressed relative to the total ^14 C-label in each sample injected (2,410 dpm). The reaction went to 0.753 completion at infinite time, as determined by heating at 100° C. The results, as determined by nonlinear regression are consistent with first-order decay with a rate constant kx =7.21+0.27×10^-7 s^-1 and 0.754±0.015 conversion at infinite time as determined by nonlinear regression.

[6] = Partition of released polar component into chloroform; format: physicochemical; settings: released by denaturation in guanidine hydrochloride
Source text: Eventually, it became evident that dihydrofinasteride is not the immediate product released upon denaturation of the enzyme-inhibitor complex. Several lines of evidence pointed to release of a much more polar [^3 H]-labeled component. Among these, it was disconcerting that recoveries of [^3 H]dihydrofinasteride on the reverse phase column were often only 35-45% of the radioactivity released from heat-denatured enzyme-inhibitor complex, the remainder never eluting (under acidic conditions). […] It is now clear that this polar intermediate accounts for most, or all, of the radioactivity released by any denaturation method, chromatographs anomalously, and is inadvertently converted to [^3 H]dihydrofinasteride during heat-denaturation.

[7] = Table 1, pH 5.5, 37° C., no time-dependent inhibition, read-out: Ki (apparent)
[8] = Table 3, human type 2, read-out: kon

kon ([1]; Table 1, pH 5.5, 37° C.): 0.85 10^5 × M^-1 s^-1
SMILES: COC(=O)[C@H]1CC[C@H]2[C@@H]3CC[C@H]4NC(=O)C=C[C@]4(C)[C@H]3CC[C@]12C [Compound 3]

kon ([1]; Table 1, pH 5.5, 37° C.): 28.00 10^5 × M^-1 s^-1
SMILES: C[C@]12C=CC(=O)N[C@@H]1CC[C@@H]1[C@@H]2CC[C@]2(C)[C@@H](C(=O)C3CCCCC3)CC[C@@H]12 [Compound 5]

Ki [1, 7]: 0.2 nM
SMILES: CN1C(=O)CC[C@]2(C)[C@H]3CC[C@]4(C)[C@@H](C(=O)C5CCCCC5)CC[C@H]4[C@@H]3CC[C@@H]12 [Compound 8]

Ki [1, 7]: 0.5 nM
SMILES: CN1C(=O)CC[C@]2(C)[C@H]3CC[C@]4(C)[C@@H](C(=O)NC5C6CC7CC(C6)CC5C7)CC[C@H]4[C@@H]3CC[C@@H]12 (some centres unmarked) [Compound 10]

IC50 ([1]; Table 3, human type 2): > 10000 nM | kon [1, 8]: 50 M⁻¹ s⁻¹ | selectivity for human 5α-reductase type 1 [2]: 3,300 | IC50 [2]: 8 nM | kon [2]: 170000 M⁻¹ s⁻¹
SMILES: CC1C[C@H]2NC(=O)C=C[C@]2(C)[C@H]2CC[C@]3(C)CC(Oc4ccc(Cl)cc4)C[C@H]3[C@H]12 (some centres unmarked) [Compound 11]

IC50 ([1]; Table 3, human type 2): 3500 nM | kon [1, 8]: 140 M⁻¹ s⁻¹ | selectivity for human 5α-reductase type 1 [2]: 1,200 | IC50 [2]: 2.8 nM | kon [2]: 170000 M⁻¹ s⁻¹
SMILES: C[C@]12C=CC(=O)N[C@@H]1CC[C@@H]1[C@@H]2CC[C@]2(C)C(CCC(=O)Nc3ccncc3)CC[C@@H]12 (some centres unmarked) [Compound 12]

rate constant for release of adduct from competent enzyme ([4]; bounded by observed decay of enzyme-[^3 H]finasteride complex): ≤ 3e-07 s⁻¹ | rate constant for binding of adduct to free enzyme, k-3 ([4]; extrapolated to zero pyridine-nucleotide cofactor): ~ 1×10^6 M^-1 s^-1 | half-life ([5]; 0.1M ammonium formate, pH 4.00, 100° C., read-out: halflife for decomposition): ~1 min | degraded ([5]; 0.1m ammonium formate, pH 4, 0.1M ammonium formate, pH 4.00, 100° C., read-out: conversion to [^14 C]-dihydrofinasteride at infinite time): 88% | degraded at 0.235 µM ([5]; pH 7.2, 37° C., read-out: conversion at infinite time, by nonlinear regression): 75.4 ± 1.5% | degraded at 0.235 µM ([5]; pH 7.2, read-out: completion at infinite time, by heating at 100° C.): 75.3% | storage stability ([5]; ammonium bicarbonate buffer, pH 9, -75° C.): stable for months | rate constant kx for nonenzymatic breakdown to NADP^+ and dihydrofinasteride ([5]; pH 7.2, 37° C.): 7.21+0.27×10^-7 s^-1 | half-life ([5]; pH 7.2, 37° C., read-out: halflife of nonenzymatic breakdown (converted)): 16000 min | degraded ([5]; pH 7.2, pH 7.2, 37° C., read-out: completion of formation of [^14 C]dihydrofinasteride at infinite time): 75% | rate constant of decomposition ([5]; water, neutral pH, 100° C.): ~ 6×10^-4 s^-1 | half-life ([5]; water, neutral pH, 100° C., read-out: halflife of decomposition): 20 min | radioactivity partitioning into chloroform [6]: < 5%
SMILES: CC(C)(C)NC(=O)[C@H]1CC[C@H]2[C@@H]3CC[C@H]4NC(=O)C(C5C=CN([C@@H]6O[C@H](COP(=O)(O)OP(=O)(O)OC[C@H]7O[C@@H](n8cnc9c(N)ncnc98)[C@H](OP(=O)(O)O)[C@@H]7O)[C@@H](O)[C@H]6O)C=C5C(N)=O)C[C@]4(C)[C@H]3CC[C@]12C (some centres unmarked) [NADP-dihydrofinasteride adduct]
mode of inhibition ([4]; versus NADPH and testosterone): competitive with the first substrate (NADPH) and independent of saturating concentrations of the second (testosterone) | stability relative to NAD-pyruvate counterpart ([5]; oxidation and dissociation): more stable to oxidation, and certainly to dissociation,than its NAD-pyruvate counterpart | ability to dissociate to [^14 C]-dihydrofinasteride after oxidation ([5]; listed as NADP-[^14 C]dihydrofinasteride adduct): completely abolished the ability to dissociate to [^14 C]-dihydrofinasteride | ability to dissociate to [^14 C]-dihydrofinasteride after oxidation ([5]; listed as covalent adduct of inhibitor and cofactor): abolished by treatment with pyrazine methosulfate

The next lines start with the compound.

SMILES: CC(C)(C)NC(=O)[C@H]1CC[C@H]2[C@@H]3CC[C@H]4NC(=O)CC[C@]4(C)[C@H]3CC[C@]12C [Compound 2]
Ki [1, 7]: 8 nM

SMILES: COC(=O)[C@H]1CC[C@H]2[C@@H]3CC[C@H]4N(C)C(=O)C=C[C@]4(C)[C@H]3CC[C@]12C [Compound 4]
Ki [1]: 960 nM

SMILES: C[C@]12CCC(=O)N[C@@H]1CC[C@@H]1[C@@H]2CC[C@]2(C)[C@@H](C(=O)C3CCCCC3)CC[C@@H]12 [Compound 6]
Ki [1, 7]: 0.3 nM

SMILES: CN1C(=O)C=C[C@]2(C)[C@H]3CC[C@]4(C)[C@@H](C(=O)C5CCCCC5)CC[C@H]4[C@@H]3CC[C@@H]12 [Compound 7]
Ki [1, 7]: 13 nM

SMILES: C[C@]12C=CC(=O)N[C@@H]1CC[C@@H]1[C@@H]2CC[C@]2(C)[C@@H](C(=O)NC3C4CC5CC(C4)CC3C5)CC[C@@H]12 (some centres unmarked) [Compound 9]
kon ([1]; Table 1, pH 5.5, 37° C.): 47.00 10^5 × M^-1 s^-1

SMILES: C[C@]12C=CC(=O)N[C@@H]1CC[C@@H]1[C@@H]2CC[C@]2(C)C(CC#N)CC[C@@H]12 (some centres unmarked) [Compound 13]
IC50 ([1]; Table 3, human type 2): 8400 nM | kon [1, 8]: 140 M⁻¹ s⁻¹ | selectivity for human 5α-reductase type 1 [2]: 1,200 | IC50 [2]: 3 nM | kon [2]: 180000 M⁻¹ s⁻¹

SMILES: COC(C)C1CC[C@H]2[C@@H]3CC[C@H]4NC(=O)C=C[C@]4(C)[C@H]3CC[C@]12C (some centres unmarked) [Compound 14]
IC50 ([1]; Table 3, human type 2): 5400 nM | kon [1, 8]: 130 M⁻¹ s⁻¹ | selectivity for human 5α-reductase type 1 [2]: 1,600 | IC50 [2]: 1.8 nM | kon [2]: 200000 M⁻¹ s⁻¹

SMILES: NC(=O)C1=CN([C@@H]2O[C@H](COP(=O)(O)OP(=O)(O)OC[C@H]3O[C@@H](n4cnc5c(N)ncnc54)[C@H](O)[C@@H]3O)[C@@H](O)[C@H]2O)C=CC1CC(=O)C(=O)O (some centres unmarked) [NAD-pyruvate adduct]
stability [3]: so unstable as to preclude normal kinetic measurements
